“Also recorded” adds a separate entry of the source.
Columns and labels:
HIG-82 synoviocytes = assay: SRB anti-proliferation assay; assay type: cell-based; conditions: 24 or 48 h incubation
Source text: (§1) (FIG. 1A) Structure of MPT0G009. […] Results in (FIGS. 1B-E) and (FIG. 1G) are means±SEM's for three independent experiments, *p<0.05 and **p<0.01 compared with no added inhibitor.

RA-FLS [1] = assay: SRB anti-proliferation assay; assay type: cell-based; conditions: 24 or 48 h incubation
Source text: as §1

RA-FLS [2] = assay: cell cycle distribution by flow cytometry (propidium iodide); assay type: cell-based; conditions: 24 h
Source text: as §1

[3] = tested on: inducible nitric oxide synthase (iNOS); assay: LPS-induced iNOS protein expression, Western blot, RAW264.7; assay type: cell-based, Mouse; conditions: RAW264.7, 0.1-10 μM, LPS 25 ng/mL 24 h
Method: (§2) Then the cells were harvested and whole cell extracts were prepared for Western blot analysis for iNOS and COX-2. The relative protein expressions are presented as mean±SEM for four replicates. *p<0.05 compared to the LPS-treated group.

cyclooxygenase-2 (COX-2) = assay: LPS-induced COX-2 protein expression, Western blot, RAW264.7; assay type: cell-based, Mouse; conditions: RAW264.7, 0.1-10 μM, LPS 25 ng/mL 24 h
Method: as §2

histone H3 (Acetyl-H3) [4] = assay: histone H3 acetylation, Western blot, HIG-82 synoviocytes; assay type: cell-based; conditions: 3 μM MPT0G009 or 60 μM SAHA; 6, 12, 24 h; starting at 6 h
histone H3 (Acetyl-H3) [5] = assay: histone H3 acetylation, Western blot, RA-FLS; assay type: cell-based; conditions: 1 μM MPT0G009 or 30 μM SAHA; 6, 12, 24 h; starting at 12 h
Method: Then cells were harvested and cell lysates were prepared for Western blot analysis of the indicated proteins. (FIG. 5C) RA-FLS were incubated for 1 h with or without the proteasome inhibitor, MG132 (1 μM). […] Results shown are representative of three independent experiments.
This was a proteasome-dependent effect because it was reduced by pretreatment with the proteasome inhibitor, MG132 (1 μM; FIG. 5c).

RAW264.7 macrophages = assay: M-CSF/RANKL-induced osteoclast formation; assay type: cell-based, Mouse; conditions: 5 nM MPT0G009 or 50 nM SAHA; M-CSF/RANKL 50 ng/mL, 5 days
Method: (§3) Cells were then tartrate resistant acid phosphatase (TRAP) stained, and the numbers of TRAP-positive multinuclear cells were counted. […] Images are at ×100 magnification, and the arrows indicate differentiated osteoclasts. (FIG. 6C) RAW264.7 cells were treated as in (FIG. 6B), then incubated with a fluorescein isothiocyanate (FITC)-conjugated anti-CD51/61 antibody and analyzed by flow cytometry. (FIGS. 6D and 6E) RAW264.7 cells (1×10^5) were transfected with 1 μg of pGL4.32[luc2P/NF-κB-RE/Hygro] (FIG. 6D) or pGL4.30[luc2P/NFAT-RE/Hygro] (FIG. 6E) for 24 h and then incubated for 30 min with or without MPT0G009 (5 nM). Then RANKL (50 ng/mL) was added and incubation was continued for an additional 24 h, after which luciferase activity was determined. Results in (FIGS. 6A, 6D, and 6E) are the means±SEM's for three independent experiments. **p<0.01 compared with the indicated controls.
Bone destruction is one characteristic of RA pathogenesis, resulting in joint dysfunction. Differentiation of mouse macrophages osteoclast-like cells can be induced in the presence of M-CSF and RANKL, which has been used as a model to investigate osteoclast differentiation. […] Subsequently, multinucleate tartrate resistant acid phosphatase (TRAP)-positive cells were counted.

NFATc1 = assay: RANKL-induced NFATc1 luciferase reporter in RAW264.7 cells; assay type: cell-based, Mouse; conditions: 5 nM MPT0G009; RANKL 24 h
Method: as §3
We also assessed the effect of MTPOG009 on the DNA-binding activity of NF-kB and NFATc1, two pivotal transcriptional factors involved in RANKL-induced pathways for promoting osteoclast differentiation. When RAW264.7 cells that had been transiently transfected with reporter plasmids were treated with 5 nM MPT0G009 for 30 min before and during 24-h stimulation with RANKL, MPT0G009 inhibited RANKL-induced NF-kB (FIG. 6d) and NFATc1 (FIG. 6e) luciferase activity.

SMILES: COc1ccc(S(=O)(=O)N2CCc3cc(C=CC(=O)NO)ccc32)cc1 [Compound 9, 3-[1-(4-methoxybenzenesulfonyl)-2,3-dihydro-1H-indol-5-yl]-N-Hydroxyacrylamide]
- proliferation of HIG-82 synoviocytes (HIG-82 synoviocytes): concentration-dependent anti-proliferative effects
- proliferation of RA-FLS (RA-FLS [1]): concentration-dependent anti-proliferative effects
- subG1 peak (cellular apoptosis) (RA-FLS [2]; MPT0G009 1-1000 nM, SAHA 3-3000 nM): did not increase the subG1 peak
- G0/G1 phase arrest (RA-FLS [2]; all concentrations of both agents): G0/G1 phase arrest was observed
- iNOS protein expression [3]: concentration-dependently inhibitory effects
- iNOS protein expression ([3]; listed as compound 9): significantly inhibited
- COX-2 protein expression (cyclooxygenase-2 (COX-2)): concentration-dependently inhibitory effects
- COX-2 protein expression (cyclooxygenase-2 (COX-2); listed as compound 9): significantly inhibited
- acetylation of histone H3 in HIG-82 synoviocytes (histone H3 (Acetyl-H3) [4]): significant hyperacetylation of histone H3
- acetylation of histone H3 in RA-FLS (histone H3 (Acetyl-H3) [5]): significant hyperacetylation of histone H3
- expression of osteoclast-specific marker CD51/61 (RAW264.7 macrophages): significantly inhibited
- formation of M-CSF/RANKL-induced TRAP-positive cells (RAW264.7 macrophages): significantly inhibited; also recorded: inhibits
- RANKL-induced NFATc1 luciferase activity (NFATc1): inhibited

— patent US20150368195A1, “INDOLINE COMPOUNDS FOR TREATMENT AND/OR PREVENTION OF INFLAMMATION DISEASES” (Taipei Medical University, priority 2014, published 2015)
